Results published in patent US20240115654A1, “INTRAVENOUS ADMINISTRATION OF ENGINEERED ANTIMICROBIAL AMPHIPHILIC PEPTIDES” (priority 2021, published 2024).
Read-outs that look alike come from different tables or passages of the source. Peptide text beside a SMILES is read from it.

Description: All subjects who met eligibility criteria were confined to the clinical research unit from […] through Day 3. At admission, physical examination, vital signs, 12 lead ECG and weight were obtained, medical and medication history were updated if necessary, safety blood tests (hematology and chemistry), urinalysis, urine drug screen and an alcohol breath test were repeated and a urine pregnancy test was done for women of childbearing potential.
At each dose level, there were 2 sentinel subjects, (1 active, 1 placebo), who were dosed at least 48 hours in advance of the other subjects in their respective group. Following review of safety data, including physical examination, vital signs, and review of adverse events from the first 2 subjects, enrolment in the cohort continued.
A 12-lead ECG was performed on Day 1, within 60 minutes of infusion start (in triplicate), mid-way through the infusion, at the completion of the infusion, 30 minutes after completion of the infusion and at various timepoints following the end of the infusion.
Vital signs were recorded within 60 minutes pre-dose, at the mid-point of the infusion and post dose vitals were assessed at completion of the infusion, 0.5, 1, 2, 3, 4, 6, 9, 12, 24 and 48 hours post dose, after at least 3 minutes of rest in supine position.
Subjects returned to the study center 7 days after dosing, for the termination visit. A full physical examination, vital signs and weight were obtained, concomitant medications were updated if necessary, safety blood specimens (haematology and chemistry, PT and aPTT) and urine were collected for urinalysis and urine drug screening. A serum pregnancy test was done for women of childbearing potential and a 12-lead ECG was performed.
In this study dose limiting toxicity (DLT) was defined as any drug related ≥Grade 3 AEs occurring despite optimal therapeutic interventions (which included but were not limited to allergic/hypersensitivity reactions, dermatological reactions/infusion site reactions, haematological toxicities such as neutropenia, thrombocytopenia and anaemia and clinical chemistry abnormalities) experienced up to Day 7 (Termination Visit).
(§1) All subjects who received any amount of study drug were included in the safety analysis (Safety population).
The study was a double blinded, randomized, placebo-controlled study. The placebo administered was 0.9% sodium chloride.
On Day 1 (day of dosing), subjects were randomly assigned either peptide IV or Placebo IV. At each dose level, there were 2 sentinel subjects, (1 active, 1 placebo), who were dosed at least 48 hours in advance of the other subjects in their respective group. Following review of safety data, including physical examination, vital signs, and review of adverse events from the first 2 subjects, enrolment in the cohort continued. All subjects who met eligibility criteria were confined to the clinical research unit from Day −2 through Day 3. At admission, physical examination, vital signs, 12 lead ECG and weight were obtained, medical and medication history were updated if necessary, safety blood tests (hematology and chemistry), urinalysis, urine drug screen and an alcohol breath test were repeated and a urine pregnancy test was done for women of childbearing potential.
as §1

[1] = Cohort 4: 0.5 mg/kg IV 2-hr infusion (N = 6)
[2] = Cohort 4: 0.5 mg/kg IV 2 hr infusion, subject 001-S086
[3] = Cohort 4: 0.5 mg/kg IV 2 hr infusion, subject 001-S093
[4] = Cohort 4: 0.5 mg/kg IV 2 hr infusion, subject 001-S094
[5] = Cohort 5 1 mg/kg IV 4-hr infusion, participant 001-S119
[6] = Cohort 5 1 mg/kg IV 4-hr infusion, participant 001-S127
[7] = Cohort 5: 1 mg/kg IV 4-hr infusion (N = 6)

CC(C)[C@H](NC(=O)[C@H](Cc1c[nH]c2ccccc12)NC(=O)[C@H](CCCNC(=N)N)NC(=O)[C@H](CCCNC(=N)N)NC(=O)[C@@H](NC(=O)[C@@H](NC(=O)[C@H](CCCNC(=N)N)NC(=O)[C@@H](NC(=O)[C@@H](NC(=O)[C@H](CCCNC(=N)N)NC(=O)[C@H](CCCNC(=N)N)NC(=O)[C@H](Cc1c[nH]c2ccccc12)NC(=O)[C@@H](NC(=O)[C@H](CCCNC(=N)N)NC(=O)[C@H](CCCNC(=N)N)NC(=O)[C@@H](NC(=O)[C@H](CCCNC(=N)N)NC(=O)[C@H](CCCNC(=N)N)NC(=O)[C@@H](NC(=O)[C@H](Cc1c[nH]c2ccccc12)NC(=O)[C@H](CCCNC(=N)N)NC(=O)[C@@H](N)CCCNC(=N)N)C(C)C)C(C)C)C(C)C)C(C)C)C(C)C)C(C)C)C(C)C)C(=O)N[C@@H](CCCNC(=N)N)C(=O)N[C@@H](CCCNC(=N)N)C(N)=O [SEQ ID NO: 1] (H-RRWVRRVRRVWRRVVRVVRRWVRR-NH2)
Treatment-related TEAE: Skin and Subcutaneous Tissue Disorders, participants n (%) [1]: 0 | Treatment-related TEAE: Thrombocytopenia, participants n (%) [1]: 0 | Treatment-related TEAE: Vascular Disorders, participants n (%) [1]: 0 | Treatment-related TEAE: Vessel puncture site erythema, participants n (%) [1]: 0 | Treatment-related TEAE: Vessel puncture site pain, occurrences m [1]: 1 | Treatment-related TEAE: Vessel puncture site pain, participants n (%) [1]: 1 (16.7%) | Treatment-related TEAE: Vomiting, participants n (%) [1]: 0 | Infusion related reaction: End Date/Time [2]: End of Study | Infusion related reaction: Severity Grade [2]: Grade 1 | Infusion related reaction: Start Date/Time [2]: Day 1/1 hour | Infusion related reaction: Event (Cohort 4: 0.5 mg/kg IV 2 hr infusion, subject 001-S086, 0.5 mg/kg): Myalgia | Infusion related reaction: End Date/Time [3]: Day 1/12 hours | Infusion related reaction: Event [3]: Discomfort at right | Infusion related reaction: Severity Grade [3]: Grade 1 | Infusion related reaction: End Date/Time [4]: Day 1/2 hours | Infusion related reaction: Event [4]: Right arm cannula | Infusion related reaction: Severity Grade [4]: Grade 1 | Severity of event: Localized IRR, Right arm (Cohort 5 1 mg/kg IV 4-hr infusion, participant 001-S113): Grade 1 | Severity of event: Localized IRR, Left arm (Cohort 5 1 mg/kg IV 4-hr infusion, participant 001-S117): Grade 1 | Severity of event: Lightheadedness [5]: Grade 1 | Severity of event: Localized IRR, Left arm [5]: Grade 1 | Severity of event: Pain at dosing site, Left arm (Cohort 5 1 mg/kg IV 4-hr infusion, participant 001-S120): Grade 1 | Severity of event: Localized IRR, Left arm (Cohort 5 1 mg/kg IV 4-hr infusion, participant 001-S122): Grade 1 | Severity of event: IRR, Right arm; pain in region of right biceps muscle [6]: Grade 1 | Severity of event: Right-sided headache [6]: Grade 1 | IRRs, events (Cohort 5, 1 mg/kg over 4 hours in 250 mL, 6 participants, all Grade 1): 9 | Number of Participants Reporting at least: Onc TEAE Leading to Study Withdrawal, n (%) [7]: 0 | Number of Participants Reporting at least: One Dose-Limiting Toxicity, n (%) [7]: 0 | Number of Participants Reporting at least: One Related TEAE, n (%) [7]: 6 (100%) | Number of Participants Reporting at least: One Serious TEAE, n (%) [7]: 0 | Number of Participants Reporting at least: One TEAE Leading to Study Drug Discontinuation, n (%) [7]: 0 | Number of Participants Reporting at least: One TEAE with Common Terminology Criteria for Adverse Events (CTCAE) Toxicity ≥ Grade 3, n (%) [7]: 0 | Number of Participants Reporting at least: One TEAE, n (%) [7]: 6 (100%) | One Related TEAE, m [7]: 11 | One TEAE, m [7]: 20 | Participants With At Least 1 TEAE, n (%) [7]: 6 (100%) | Participants With At Least 1 TEAE, occurrences m [7]: 20 | Participants With At Least 1 Treatment-Related TEAE, n (%) [7]: 6 (100%) | Participants With At Least 1 Treatment-Related TEAE, occurrences m [7]: 11 | TEAE Severity Grade 1, m [7]: 19 | TEAE Severity Grade 1, n (%) [7]: 6 (100%) | TEAE Severity Grade 2, m [7]: 1 | TEAE Severity Grade 2, n (%) [7]: 1 (16.7%) | TEAE by system organ class: Blood and Lymphatic System Disorders, participants n (%) [7]: 0 | TEAE by system organ class: Gastrointestinal Disorders, occurrences m [7]: 1 | TEAE by system organ class: Gastrointestinal Disorders, participants n (%) [7]: 1 (16.7%) | TEAE by system organ class: General Disorders and Administration Site Conditions, occurrences m [7]: 9 | TEAE by system organ class: General Disorders and Administration Site Conditions, participants n (%) [7]: 6 (100%) | TEAE by system organ class: Infections and Infestations, participants n (%) [7]: 0 | TEAE by system organ class: Injury, Poisoning, and Procedural Complications, occurrences m [7]: 5 | TEAE by system organ class: Injury, Poisoning, and Procedural Complications, participants n (%) [7]: 4 (66.7%) | TEAE by system organ class: Musculoskeletal and Connective Tissue Disorders, occurrences m [7]: 1 | TEAE by system organ class: Musculoskeletal and Connective Tissue Disorders, participants n (%) [7]: 1 (16.7%) | TEAE by system organ class: Nervous System Disorders, occurrences m [7]: 2 | TEAE by system organ class: Nervous System Disorders, participants n (%) [7]: 2 (33.3%) | TEAE by system organ class: Respiratory, Thoracic, and Mediastinal disorders, participants n (%) [7]: 0 | TEAE by system organ class: Skin and Subcutaneous Tissue Disorders, occurrences m [7]: 2 | TEAE by system organ class: Skin and Subcutaneous Tissue Disorders, participants n (%) [7]: 2 (33.3%) | TEAE by system organ class: Vascular Disorders, participants n (%) [7]: 0 | TEAE severity Grade 1, occurrences m [7]: 19 | TEAE severity Grade 1, participants n (%) [7]: 6 (100%) | TEAE severity Grade 2, occurrences m [7]: 1 | TEAE severity Grade 2, participants n (%) [7]: 1 (16.7%) | TEAE severity Grade 3, participants n (%) [7]: 0 | TEAE severity Grade 4, participants n (%) [7]: 0 | TEAE severity Grade 5, participants n (%) [7]: 0 | Treatment-related TEAE: Abdominal distension, participants n (%) [7]: 0
